Source: patent US9744250B2, “Chemical model of a neurodegenerative disease, method for preparation and uses of same” (priority 2012, dated 2017)

How the values were obtained:
mitochondrial complex I = experiment: Spectrophotometric analysis of complex I activity (NADH oxidation); assay type: biochemical, rat
Method: (§1) The animal was then decapitated in order to collect from the brain either the cortex or the striatum, which were quickly placed in a Potter Elvejhem® containing 6 ml of extraction buffer at 4° C. (250 mM sucrose, 40 mM KCl, 2 mM EGTA, lmg/ml BSA, 20 mM Tris, pH=7.2). This mixture was homogenized to break open the cells and release the mitochondria and then centrifuged at 2000 g for 8 minutes to remove the larger membrane debris and the nuclei from the pellet. The supernatant was then recovered and centrifuged at 13,000 g for 11 minutes. The supernatant was discarded while the pellet containing a mitochondria-rich fraction was resuspended in 500 μl of respiration buffer at 4° C. (300 mM D-mannitol, 10 mM KCl, 10 mM KH2PO4, 5 mM MgCl2, pH=7.2). […]
The kinetics of the oxidation reaction of NADH into NAD+ at 340 nm at 37° C. were continuously monitored by spectrophotometry using a JASCO V-530 spectrophotometer or a TECAN 1000M Infinite plate reader, set to a wavelength of 340 nm for 3 min. The amount of mitochondria extract to obtain the maximum activity introduced into the reaction volume was 100 μg with the spectrophotometer and 10 μg with the reader. […] The slope of the kinetics was then measured. […] The inhibition percentage was then calculated.

[1] = system: mitochondria isolated from rat cerebral cortex; experiment: Respiratory control (oxygen consumption, malate/pyruvate) of isolated cerebral cortex mitochondria; assay type: biochemical; conditions: increasing concentration
Method: as §1
Added to the polarography chamber (Hansatech) were 30 μl of mitochondria solution (0.2 mg), 460 μL of respiration buffer, 5 μl of test compound solution (meaning MPP+ or furosemide pyridinium) (or its solubilizing solvent). […] The effect of the compound on respiratory control was evaluated (ratio of stage 3 to 4), which corresponds to the coupling of the respiratory chain, or in other words the ATP synthesis at complex V and the oxygen consumption due to complexes I to IV. The results are expressed as percentages of the value measured for mitochondria not treated with the test compound (but treated with the solubilizing solvent).

α-synuclein = experiment: Cellular accumulation of α-synuclein (Western blot) in SH-SY5Y cells; assay type: cell-based, human; conditions: 1 mM, 6 h incubation (+24 h without MPP+)
Method: Cells were incubated under the same conditions as above with furosemide pyridinium (1 mM, incubation: 96 h) and MPP+ (1 mM, incubation: 6 h, wait 24 h). After incubation, the cells were trypsinized, rinsed with PBS, counted, then harvested in 100 μl of buffer containing: 250 mM sucrose; 70 mM KCl; 137 mm NaCl; 4.3 mm NaH2PO4; 1.4 mm KH2PO4, pH 7.2; and […] digitonin. Incubation at 4° C. was then conducted for 5 minutes before centrifuging at 13,000 g for 5 minutes to separate the cytosolic and lysosomal fraction from the mitochondrial fraction. Deposits of cytosolic fraction in the Western blot were adjusted according to the number of cells. The protein samples were diluted in 4× Laemmli and were then heated for 3 minutes at 95° C. to denature. They were loaded into the wells of gel. In addition to the samples, a molecular weight marker (Fermentas) was deposited in the gel. […] The transfer was carried out on PVDF membrane. The transfer was done in transfer buffer (25 mM Tris, 192 mM glycine, 10% methanol) overnight at 4° C. and 30V or for 2 hours at 4° C. and 80V. […] Then the membranes were immunolabeled for 1.5 h at room temperature with a primary antibody diluted in 1×PBS/0.2% Tween/3% milk. […] The primary antibody used was anti-α-synuclein, 1:500 (visualized with an anti-rabbit secondary antibody, 1:10,000).

[2] = system: respiratory chain complexes II-V of rat cerebral cortex mitochondria; experiment: Respiratory control after induction of complex II by succinate and inhibition of complex I by rotenone; assay type: biochemical; conditions: 1 mM, succinate
Method: as §1
Added to the polarography chamber (Hansatech) were 30 μl of mitochondria solution (0.2 mg), 460 μL of respiration buffer, 5 μl of test compound solution (meaning MPP+ or furosemide pyridinium) (or its solubilizing solvent). […] The effect of the compound on respiratory control was evaluated (ratio of stage 3 to 4), which corresponds to the coupling of the respiratory chain, or in other words the ATP synthesis at complex V and the oxygen consumption due to complexes I to IV. The results are expressed as percentages of the value measured for mitochondria not treated with the test compound (but treated with the solubilizing solvent). […]

SH-SY5Y neuronal cells = experiment: Cell viability test in MTT; assay type: cell-based, human
Method: Cells from SH-SY5Y human neuroblastomas were cultured in a DMEM medium containing 4.5 g·L^−1 glucose, 10% fetal calf serum, and 1% penicillin/streptomycin, and placed in an incubator at 37° C. with 7% CO2.
In the various experiments, the SH-SY5Y cells were seeded at a density of 4×10^4 cells/mL. 24 h after seeding, the cells were exposed to the various test compounds at 37° C. for 24 h, 48 h, 72 h, or 96 h.
This test consisted of rapidly measuring cellular metabolic activity in the presence of the study compound at different concentrations, in order to conduct a dose-response study. To do this, the tetrazolium salt MTT, 3-(4,5-dimethylthiazol-2-yl)-2,5-diphenyltetrazolium bromide (Amoroso et al., Biochim Biophys Acta, 1999, 1452(2):151-60), was placed in contact with the cells. MTT is reduced to formazan by living cells that have the capacity to metabolize it, unlike dead cells. To conduct this test, SH-SY5Y neuronal cells in 48-well plates were incubated for 24 h, 48 h, 72 h, and 96 h, with furosemide pyridinium at concentrations ranging from 0 to 1000 μM. Then MTT (0.5 mg/ml final) was added to each well and incubated at 37° C. for 2 h. At the end of incubation, after carefully removing the medium, DMSO was added (200 μL) to dissolve the cell membranes and the formazan crystals formed by the living cells. The toxicity of the molecule was evaluated by determining the amount of reduced MTT, doing so by measuring the absorbance at 550 nm as this value is proportional to the number of living cells. The results were expressed as a function of the values obtained for cells treated only with the solvent used to dissolve the compound of interest. To compare the toxicity of furosemide pyridinium to that of MPP+, the cells were incubated in the presence of MPP+ (0 to 1000 μM) for 6 h. The culture medium was replaced and the cells were incubated at 37° C. for an additional 24 h (no MPP+). Cell survival was measured at the end of these 24 hours of incubation as described above. When evaluating the effect of different concentrations of α-tocopherol (vitamin E), a membrane antioxidant, the cells were pretreated for 24 h with this antioxidant before being exposed to furosemide pyridinium at a concentration of 0.5 mM under the same experimental conditions as above.

caspase-8 = experiment: Caspase-8 activity (Ac-IETD-AFC cleavage) in SH-SY5Y cells; assay type: cell-based, human; conditions: 1 mM, 6 h (+24 h without MPP+)
Method: Measurement of the activities of the various caspases is based on the ability of the caspases to cleave specific fluorescent substrates: Ac-DEVD-AFC for caspase-3, Ac-IETD-AFC for caspase-8, or Ac-LEHD-AFC for caspase-9. SH-SY5Y neuronal cells were incubated in 48-well plates with either furosemide pyridinium (1 mM) for 96 h or with MPP+ (1 mM) for 6 h, then 24 h of incubation with no MPP+. After incubation, the cells were trypsinized, then rinsed with PBS and counted, then harvested in 100 μl of buffer containing 30 mM HEPES, 0.3 mM EDTA, 100 mM NaCl, 0.15% Triton X-100, and 10 mM DTT. The cell extract was then incubated for 1 hour at 37° C. with the specific substrate (100 μM) in a 96-well plate. Fluorescence was measured at λex400 nm and λem505 nm in a fluorescence detection plate reader (TECAN Infinite M1000) (Yue et al., supra). The results were expressed as percentages relative to the measured activity of cells cultured under the same conditions and not subjected to any treatment.

Clc1ccc(-[n+]2ccccc2)cc1.[Cl-] [1-(4-chlorophenyl) pyridinium, 1-(4-chlorophenyl) pyridinium chloride]
inhibition of complex I activity (mitochondrial complex I; concentration not given): 95%

Oc1ccc[n+](-c2ccc(Cl)cc2)c1.[Cl-] [1-(4-chlorophenyl)-3-hydroxypyridinium, 1-(4-chlorophenyl)-3-hydroxypyridinium chloride]
inhibition of complex I activity (mitochondrial complex I; 0.2 mM): complete inhibition

C[n+]1ccc(-c2ccccc2)cc1 [MPP+, reference compound]
respiratory control of cerebral cortex mitochondria induced by malate/pyruvate [1]: diminished
increase in the total amount of α-synuclein compared to control cells (α-synuclein): 319%
respiratory control of cortex mitochondria after induction by complex II [2]: not modified
cell death (SH-SY5Y neuronal cells; 1 mM, 6 h incubation (+24 h without MPP+)): massive cell death
EC50 (SH-SY5Y neuronal cells; 6 h incubation (+24 h without MPP+), read-out: EC50 (cell survival)): 386 ± 19.2 µM
change in caspase-8 activity (caspase-8): did not induce significant changes

Cc1c(C)c2c(c(C)c1O)CC[C@@](C)(CCC[C@H](C)CCC[C@H](C)CCCC(C)C)O2 [α-tocopherol]
concentration at which the protective effect becomes visible (SH-SY5Y neuronal cells; 24 h pretreatment, then 0.5 mM furosemide pyridinium): 0.1 mg/mL
cell survival rate after 24 h pretreatment before 0.5 mM furosemide pyridinium (SH-SY5Y neuronal cells; 24 h pretreatment, then 0.5 mM furosemide pyridinium 96 h): increased the cell survival rate in a dose-dependent manner
increase of cell survival, α-tocopherol alone (SH-SY5Y neuronal cells; pretreatment 1 μg/mL, without furosemide pyridinium): 20%
change of cell survival, α-tocopherol alone (SH-SY5Y neuronal cells; pretreatment 0.01 and 0.1 μg/mL, without furosemide pyridinium): did not change cell survival
